These results are taken from US8247351B2, “Insecticidal compositions having improved effect” (Bayer Cropscience AG, priority 2005, dated 2012).

One assay concerns Aphis gossypii. As to the kind of experiment: Aphis gossypii test, Example G (sprayed to runoff, ammonium salt plus penetrant). It is filed as in vivo. The protocol:
(§1) Solvent: 7 parts by weight dimethylformamide
(§2) Emulsifier: 2 parts by weight alkylaryl polyglycol ether
An appropriate preparation of active ingredient is prepared by mixing 1 part by weight of active ingredient with the stated amounts of solvent and emulsifier and diluting the concentrate with emulsifier-containing water to the desired concentration. For the application with ammonium salts or phosphonium salts and penetrants (rapeseed oil methyl esters 500 EW), they are each added in a concentration of 1000 ppm a.i. to the spray liquor.
Cotton plants (Gossypium hirsutum) heavily infested by the cotton aphid (Aphis gossypii) are sprayed to runoff with the preparation of active ingredient at the desired concentration.
After the desired time the destruction in % is ascertained. 100% means that all of the aphids have been killed; 0% means than no aphids were killed.

For a further assay, the system named is Myzus persicae. As to the kind of experiment: Myzus persicae test, Example F (sprayed to runoff, ammonium salt plus penetrant). It is filed as in vivo. The protocol:
as §1, §2
An appropriate preparation of active ingredient is prepared by mixing 1 part by weight of active ingredient with the stated amounts of solvent and emulsifier and diluting the concentrate with water to the desired concentration. For the application with ammonium salts or phosphonium salts and penetrant (rapeseed oil methyl ester 500 EW), they are each added in a concentration of 1000 ppm to the spray liquor.
After the desired time the destruction in % is ascertained. 100% means that all of the animals have been killed; 0% means that no animals have been killed.

Setting [1] is: 100 ppm active ingredient, +AS (1000 ppm).
Setting [2] is: 100 ppm active ingredient, +RME (1000 ppm).
Setting [3] is: 100 ppm active ingredient, +RME +AS (each 1000 ppm).
[4] abbreviates: 100 ppm active ingredient, no additive.
Setting [5] is: 20 ppm active ingredient, +AS (1000 ppm).
[6] abbreviates: 20 ppm active ingredient, +RME (1000 ppm).
Setting [7] is: 20 ppm active ingredient, +RME +AS (each 1000 ppm).
Where [8] appears, read: 20 ppm active ingredient, no additive.
[9] abbreviates: 0.8 ppm active ingredient, +AS (1000 ppm).
[10] abbreviates: 0.8 ppm active ingredient, +RME (1000 ppm).
Setting [11] is: 0.8 ppm active ingredient, +RME +AS (each 1000 ppm).
Where [12] appears, read: 0.8 ppm active ingredient, no additive.
Where [13] appears, read: 4 ppm active ingredient, +AS (1000 ppm).
Where [14] appears, read: 4 ppm active ingredient, +RME (1000 ppm).
Setting [15] is: 4 ppm active ingredient, +RME +AS (each 1000 ppm).
[16] abbreviates: 4 ppm active ingredient, no additive.

SMILES strings stand for the structures.

As to `COC1CCCC2(CC(O)=C(c3c(C)cc(C)cc3C)C2=O)C1` (stereo not shown) [Example I-6-a-2], the “Degree of destruction/% after 6 days” value in the assay on Aphis gossypii (setting [1]) amounted to 30%; with Aphis gossypii (setting [2]), 15%; in the assay with Aphis gossypii (setting [3]) it was 40%; in the assay with Aphis gossypii (setting [4]) it was 0%.
As for `O=C1C(c2cc(-c3ccc(Cl)cc3)ccc2Cl)C(=O)N2CCCCN12` [Example I-8-a-1], the “Degree of destruction/% after 6 days” value with Myzus persicae (setting [1]) is listed as 30%; in the assay on Myzus persicae (setting [2]) it was 30%; with Myzus persicae (setting [3]), 45%; in the assay with Myzus persicae (setting [4]) it was 15%; in the assay with Aphis gossypii (setting [1]), 15%; with Aphis gossypii (setting [2]), 15%. Also, the “Degree of destruction/% after 6 days” value in the assay on Aphis gossypii (setting [3]) was determined as 40%; in the assay on Aphis gossypii (setting [4]) it was 0%.
In the case of `Cc1ccc(-c2ccc(Cl)cc2)c(C)c1C1C(=O)N2CCOCCN2C1=O` [Example I-8-a-3], the “Degree of destruction/% after 6 days” value in the assay on Aphis gossypii (setting [5]) is 50%; in the assay on Aphis gossypii (setting [6]), 50%; with Aphis gossypii (setting [7]), 90%; in the assay with Aphis gossypii (setting [8]), 15%.
Consider `Cc1ccc(-c2ccc(Cl)cc2)cc1C1=C(O)C(C)(C)C(C)(C)NC1=O` [Example I-9-a-1], for which the “Degree of destruction/% after 6 days” value in the assay with Myzus persicae (setting [1]) worked out at 0%; with Myzus persicae (setting [2]), 5%; with Myzus persicae (setting [3]) it was 50%; in the assay on Myzus persicae (setting [4]), 15%.
`Cc1cc(C)c(C2C(=O)N3CCOCCN3C2=O)c(C)c1-c1ccc(Cl)cc1` [Example I-8-a-4]: the “Degree of destruction/% after 6 days” value with Aphis gossypii (90 ppm active ingredient, +AS (1000 ppm)) came to 35%; in the assay with Aphis gossypii (90 ppm active ingredient, +RME (1000 ppm)), 30%; in the assay on Aphis gossypii (90 ppm active ingredient, +RME +AS (each 1000 ppm)), 75%; with Aphis gossypii (90 ppm active ingredient, no additive) it was 30%.
In the case of `COC1CCC2(CC1)NC(=O)C(c1c(C)cc(C)c(C)c1C)=C2O` (stereo not shown) [Example I-1-a-9], the “Degree of destruction/% after 6 days” value with Myzus persicae (setting [9]) was 5%; with Myzus persicae (setting [10]) it was 35%; with Myzus persicae (setting [11]) it was 75%; in the assay on Myzus persicae (setting [12]), 0%.
For the molecule `COCC1CCC2(CC1)NC(=O)C(c1cc(C)c(Cl)cc1C)=C2O` (stereo not shown) [Example I-1-a-18], the “Degree of destruction/% after 6 days” value with Myzus persicae (setting [13]) turned out to be 0%; in the assay with Myzus persicae (setting [14]), 35%; in the assay on Myzus persicae (setting [15]), 55%; in the assay with Myzus persicae (setting [16]), 0%.
Regarding `CO[C@H]1CC[C@]2(CC1)NC(=O)C(c1cc(C)ccc1C)=C2O` [Example I-1-a-13], the “Degree of destruction/% after 6 days” value was 0% with Myzus persicae (setting [9]); 0% with Myzus persicae (setting [10]); 30% with Myzus persicae (setting [11]); 0% with Myzus persicae (setting [12]); 0% with Myzus persicae (setting [13]); 65% with Myzus persicae (setting [14]). For the same molecule, the “Degree of destruction/% after 6 days” value worked out at 75% in the assay with Myzus persicae (setting [15]) and 0% in the assay on Myzus persicae (setting [16]).
On to `O=C1C(c2cc(-c3ccc(Cl)cc3)ccc2Cl)C(=O)N2CCOCCN12` [Example I-8-a-2], for which the “Degree of destruction/% after 6 days” value in the assay on Myzus persicae (setting [1]) came to 15%; in the assay with Myzus persicae (setting [2]), 15%; with Myzus persicae (setting [3]) it was 55%; with Myzus persicae (setting [4]), 0%.
Turning to `Cc1cc(C)c(C2=C(O)C3(CCCCC3)CC2=O)c(C)c1` [Example I-6-a-1], the “Degree of destruction/% after 6 days” value is listed as 40% in the assay with Aphis gossypii (setting [1]), 60% in the assay on Aphis gossypii (setting [2]), 80% with Aphis gossypii (setting [3]) and 40% in the assay on Aphis gossypii (setting [4]).
On to `CCOC(=O)OC1=C(c2c(C)cc(C)cc2C)C(=O)NC12CCC(COC)CC2` (stereo not shown) [Example I-1-c-2], for which the “Degree of destruction/% after 6 days” value in the assay on Aphis gossypii (setting [5]) worked out at 85%; in the assay with Aphis gossypii (setting [6]), 90%; with Aphis gossypii (setting [7]) it was 99%; with Aphis gossypii (setting [8]) it was 85%.
